# Data: patent US20060205642A1, “Oral methods of treatment using proANF peptides” (priority 2005, published 2006)
# Tests used:
# [1] = Infusion into human subjects with Class III NYHA congestive heart failure; type: in vivo, humans
# Method: Human proANF's 1-30, 31-67, 79-98, and 99-126 (i.e., ANF) were infused into human subjects with Class III New York Heart Association congestive heart failure (CHF). An identical protocol to that used in example V where these peptides were infused into healthy human subjects was utilized. (See Attachment C and F for a detailed description of this protocol). The human subjects with congestive heart failure received an identical dose (0.1 μg/kg body wt/minute for 60 minutes) that the healthy human subjects received. […] This striking urine output secondary to proANF 31-67 was significant at P<0.0001 compared to the pre-infusion output of the congestive heart failure subjects (n=6).
# [2] = system: particulate guanylate cyclase; experiment: Cyclic GMP / particulate guanylate cyclase activation in cultured smooth muscle cells and porcine aorta; type: cell-based
substance,measurement,setting,value
H-EVVPPQVLSEPNEEAGAALSPLPEVPPWTGEVSPAQR-OH [proANF 31-67],FENa 20 minutes after infusion began,[1]; CHF,doubled
same,FENa at the end of the infusion vs baseline,[1]; CHF,4.5 fold
same,decrease of central venous pressure,[1]; CHF,27%
same,decrease of pulmonary capillary wedge pressure,[1]; CHF,33%
same,heart rate,[1]; CHF,did not change significantly
same,increase of cardiac index,[1]; CHF,35%
same,increase of cardiac output,[1]; CHF,34%
same,increase of stroke volume index,[1]; CHF,24%
same,mean pulmonary artery pressure,[1]; CHF,did not change significantly
same,sodium excretion within 20 minutes,[1]; CHF,doubling
same,enhancement of sodium excretion,"[1]; CHF subjects, 100 ng/kg body weight/min for 60 minutes",three-to-eight fold
same,urine output in 20 minutes,"[1]; CHF, 0.1 μg/kg body wt/minute for 60 minutes",doubled
same,urine output at the end of the 60 minute infusion,"[1]; CHF, 0.1 μg/kg body wt/minute, n=6",4.8 fold
same,fractional excretion of sodium (in words),"[1]; CHF, 100 ng/kg body weight per minute for 60 minutes",significantly (P<0.05) increased
same,maximum increase of fractional excretion of sodium (FENa),"[1]; CHF, P<0.001",6 fold
same,sodium excretion 3 hours after infusion was stopped vs baseline,"[1]; CHF, P<0.01",3 fold
same,decrease of pulmonary vascular resistance,"[1]; CHF, during the infusion",25%
same,decrease of systemic vascular resistance,"[1]; CHF, during the infusion",24%
same,urine output 3 hours after stopping the infusion vs pre-infusion values,"[1]; CHF, n=6",4.3 fold
same,urine output 3 hours after stopping the infusion,"[1]; CHF, n=6, baseline 1.56±0.35 mL/min",6.7 ± 0.65 mL/min
same,cardiac index after proANF 31-67,"[1]; CHF, from 2.66±0.01",3.58±0.01 L·min^−1·m^−2
same,cardiac output after proANF 31-67,"[1]; CHF, from 5.35±0.9 L/min",7.9 ± 1.2 L/min
same,effects in persons with CHF compared to healthy individuals,[1]; diuretic and natriuretic effects,"not blunted (i.e., decreased) compared to healthy individuals"
same,adverse effects,"[1]; human, in vivo",no adverse effects
same,hypotension,"[1]; human, in vivo",None became hypotensive
same,increase in urinary volume and flow,"[1]; one CHF patient, for six hours after infusion was stopped",2 fold
same,cyclic GMP levels in cultured smooth muscle cells,[2]; cultured smooth muscle cells,increase cyclic GMP levels
same,concentration of maximal activation of guanylate cyclase activity,[2]; porcine aorta and isolated smooth muscle cells,about 1 μM
same,EC50,"[2]; porcine aorta and isolated smooth muscle cells, read-out: half maximal activation (ED5o) of guanylate cyclase",~10 nM
